Data from patent US20090263499A1, “AREA DECON[…] LOW-LEVEL CONCENTRATION OF […]” (Ethicon, Inc., priority 2008, published 2009).
Where two headings read alike, the source gives them in different places.

Tested on: G. stearothermophilus spores
Details: for Average Log Reduction: nominal 0.35 ppm H2O2, blades exposed serially; for Average Log Reduction / AVERAGE LOG REDUCTION: [H2O2] average, low; for AVERAGE LOG REDUCTION: nominal 0.6 ppm H2O2 vapor from urea complex, 6×10^4 spores per blade
Protocol: Stainless steel scalpel blades were inoculated with 10 μL of inoculum containing 6×10^4 spores. The inoculum was then dried on the blade surface. Nine inoculated blades where placed in a 1 ft^3 sealed chamber constructed of acrylic. In the chamber a urea complex was confined in a glass tube with a flow restriction that allowed the concentration of peroxide in the chamber to be controlled. Three identically-inoculated blades where placed inside a covered petrie dish and placed near the chamber to serve as controls. At three day intervals, three blades were retrieved from the chamber as well as one control. These blades were subjected to a standard recovery, plating and incubation procedure from which the viable spore count and log reduction could be determined.

OO [hydrogen peroxide]
Average Log Reduction (after 3 days exposure, high 0.35, 0.2, 0.5 ppm): 1.12
Average Log Reduction (after 7 days exposure, high 0.30, 0.2, 0.5 ppm): 1.83
Average Log Reduction (after 9 days exposure, high 0.39, 0.2, 0.6 ppm): ≧4.0
AVERAGE LOG REDUCTION (after 3 days exposure, high 0.56, 0.40, 0.83 ppm): 1.5
AVERAGE LOG REDUCTION (after 6 days exposure, high 0.66, 0.40, 0.83 ppm): 2.7
AVERAGE LOG REDUCTION (after 9 days exposure, high 0.66, 0.40, 0.95 ppm): ≧4.8
log reduction in G. stearothermophilus spores per day (nominal concentration of 0.6 ppm of hydrogen peroxide, from Table 1): ~0.5
